Organism: Rattus norvegicus
Experiment: DrugMatrix - Regimen: Daily Repeat
Assay type: toxicity, organism-based, Sprague-Dawley
Set-up: regimen Daily Repeat, gender Male, age 6-8 weeks
Details: in vivo, iv, vehicle 100 % SALINE; for ABSOLUTE BASOPHIL / ABSOLUTE EOSINOPHIL / ABSOLUTE LYMPHOCYTE / ABSOLUTE MONOCYTE / ABSOLUTE SEGMENTED NEUTROPHIL / BASOPHIL / EOSINOPHIL / ERYTHROCYTE COUNT / HEMATOCRIT / HEMOGLOBIN / LEUKOCYTE COUNT / LYMPHOCYTE / MEAN CORPUSCULAR HEMOGLOBIN / MEAN CORPUSCULAR HEMOGLOBIN CONCENTRATION / MEAN CORPUSCULAR VOLUME / MONOCYTE / NEUTROPHIL / NUCLEATED RED BLOOD CELLS / PLATELET COUNT: tissue Blood; for ALANINE AMINOTRANSFERASE / ALBUMIN / ALKALINE PHOSPHATASE / ASPARTATE AMINOTRANSFERASE / BLOOD UREA NITROGEN / CARBON DIOXIDE / CHLORIDE / CHOLESTEROL / CREATINE PHOSPHOKINASE / CREATININE / GLUCOSE / LACTATE DEHYDROGENASE / LIPASE / PHOSPHORUS / POTASSIUM / SODIUM / TOTAL BILIRUBIN / TOTAL PROTEIN / URIC ACID: tissue Plasma
[1] = 0 mg/kg, 72 h, dose level Control, time 3 day
[2] = 0 mg/kg, 120 h, dose level Control, time 5 day
[3] = […], 72 h, dose 0.15 mg/Kg, dose level Low, time 3 day
[4] = […], 72 h, dose 1.5 mg/Kg, dose level High, time 3 day

## CCC1=C[C@@H]2CN(C1)Cc1c([nH]c3ccccc13)[C@@](C(=O)OC)(c1cc3c(cc1OC)N(C)[C@H]1[C@@](O)(C(=O)OC)[C@H](OC(C)=O)[C@]4(CC)C=CCN5CC[C@]31[C@@H]54)C2 [VINORELBINE]
[1]
  ABSOLUTE BASOPHIL: 0 CELLS/uL
  ABSOLUTE EOSINOPHIL: 15.33 CELLS/uL
  ABSOLUTE LYMPHOCYTE: 9513.5 CELLS/uL
  ABSOLUTE MONOCYTE: 94.67 CELLS/uL
  ABSOLUTE SEGMENTED NEUTROPHIL: 709.83 CELLS/uL
  BASOPHIL: 0%
  EOSINOPHIL: 0.17%
  ERYTHROCYTE COUNT: 5.63 x10E6/uL
  HEMATOCRIT: 34.63%
  HEMOGLOBIN: 13.6 G/DL
  LEUKOCYTE COUNT: 10.33 x10E3/uL
  LYMPHOCYTE: 92%
  MEAN CORPUSCULAR HEMOGLOBIN: 24.17 pg
  MEAN CORPUSCULAR HEMOGLOBIN CONCENTRATION: 39.28 G/DL
  MEAN CORPUSCULAR VOLUME: 61.57 fL
  MONOCYTE: 0.83%
  NEUTROPHIL: 7%
  NUCLEATED RED BLOOD CELLS: 0 /100WBC
  PLATELET COUNT: 903.17 x10E3/uL
  ALANINE AMINOTRANSFERASE: 49.33 u/L
  ALBUMIN: 4.27 G/DL
  ALKALINE PHOSPHATASE: 400.83 u/L
  ASPARTATE AMINOTRANSFERASE: 77.5 u/L
  BLOOD UREA NITROGEN: 16.33 mg/dL
  CARBON DIOXIDE: 29.33 mmol/L
  CHLORIDE: 99.67 MEQ/L
  CHOLESTEROL: 66.67 mg/dL
  CREATINE PHOSPHOKINASE: 275.33 u/L
  CREATININE: 0.18 mg/dL
  GLUCOSE: 163.83 mg/dL
  LACTATE DEHYDROGENASE: 125.33 u/L
  LIPASE: 10 u/L
  PHOSPHORUS: 12.12 mg/dL
  POTASSIUM: 6.68 MEQ/L
  SODIUM: 144.02 MEQ/L
  TOTAL BILIRUBIN: 0.18 mg/dL
  TOTAL PROTEIN: 5.87 G/DL
  URIC ACID: 1.63 mg/dL
[2]
  ABSOLUTE BASOPHIL: 0 CELLS/uL
  ABSOLUTE EOSINOPHIL: 48.83 CELLS/uL
  ABSOLUTE LYMPHOCYTE: 14562 CELLS/uL
  ABSOLUTE MONOCYTE: 138.67 CELLS/uL
  ABSOLUTE SEGMENTED NEUTROPHIL: 1733.83 CELLS/uL
  BASOPHIL: 0%
  EOSINOPHIL: 0.33%
  ERYTHROCYTE COUNT: 5.89 x10E6/uL
  HEMATOCRIT: 36.7%
  HEMOGLOBIN: 14.42 G/DL
  LEUKOCYTE COUNT: 16.48 x10E3/uL
  LYMPHOCYTE: 88.83%
  MEAN CORPUSCULAR HEMOGLOBIN: 24.52 pg
  MEAN CORPUSCULAR HEMOGLOBIN CONCENTRATION: 39.3 G/DL
  MEAN CORPUSCULAR VOLUME: 62.37 fL
  MONOCYTE: 0.67%
  NEUTROPHIL: 10.17%
  NUCLEATED RED BLOOD CELLS: 0 /100WBC
  PLATELET COUNT: 1076.5 x10E3/uL
  ALANINE AMINOTRANSFERASE: 44.67 u/L
  ALBUMIN: 4.23 G/DL
  ALKALINE PHOSPHATASE: 357.33 u/L
  ASPARTATE AMINOTRANSFERASE: 84.83 u/L
  BLOOD UREA NITROGEN: 15.5 mg/dL
  CARBON DIOXIDE: 27 mmol/L
  CHLORIDE: 99.5 MEQ/L
  CHOLESTEROL: 63.67 mg/dL
  CREATINE PHOSPHOKINASE: 331.33 u/L
  CREATININE: 0.18 mg/dL
  GLUCOSE: 167.33 mg/dL
  LACTATE DEHYDROGENASE: 320.17 u/L
  LIPASE: 9.17 u/L
  PHOSPHORUS: 12.05 mg/dL
  POTASSIUM: 6.54 MEQ/L
  SODIUM: 143.02 MEQ/L
  TOTAL BILIRUBIN: 0.2 mg/dL
  TOTAL PROTEIN: 6.23 G/DL
  URIC ACID: 2.07 mg/dL
[3]
  ABSOLUTE BASOPHIL: 0 CELLS/uL
  ABSOLUTE EOSINOPHIL: 49.67 CELLS/uL
  ABSOLUTE LYMPHOCYTE: 13595.67 CELLS/uL
  ABSOLUTE MONOCYTE: 462 CELLS/uL
  ABSOLUTE SEGMENTED NEUTROPHIL: 1292.67 CELLS/uL
  BASOPHIL: 0%
  EOSINOPHIL: 0.33%
  ERYTHROCYTE COUNT: 5.91 x10E6/uL
  HEMATOCRIT: 37.77%
  HEMOGLOBIN: 14.97 G/DL
  LEUKOCYTE COUNT: 15.4 x10E3/uL
  LYMPHOCYTE: 87.67%
  MEAN CORPUSCULAR HEMOGLOBIN: 25.3 pg
  MEAN CORPUSCULAR HEMOGLOBIN CONCENTRATION: 39.63 G/DL
  MEAN CORPUSCULAR VOLUME: 63.93 fL
  MONOCYTE: 3%
  NEUTROPHIL: 9%
  NUCLEATED RED BLOOD CELLS: 0 /100WBC
  PLATELET COUNT: 1301 x10E3/uL
[4]
  ABSOLUTE BASOPHIL: 0 CELLS/uL
  ABSOLUTE EOSINOPHIL: 0 CELLS/uL
  ABSOLUTE LYMPHOCYTE: 5207.33 CELLS/uL
  ABSOLUTE MONOCYTE: 23 CELLS/uL
  ABSOLUTE SEGMENTED NEUTROPHIL: 236.33 CELLS/uL
  BASOPHIL: 0%
  EOSINOPHIL: 0%
  ERYTHROCYTE COUNT: 5.25 x10E6/uL
  HEMATOCRIT: 33.27%
  HEMOGLOBIN: 13.3 G/DL
  LEUKOCYTE COUNT: 5.47 x10E3/uL
  LYMPHOCYTE: 95.33%
  MEAN CORPUSCULAR HEMOGLOBIN: 25.4 pg
  MEAN CORPUSCULAR HEMOGLOBIN CONCENTRATION: 40 G/DL
  MEAN CORPUSCULAR VOLUME: 63.43 fL
  MONOCYTE: 0.33%
  NEUTROPHIL: 4.33%
  NUCLEATED RED BLOOD CELLS: 0.33 /100WBC
  PLATELET COUNT: 808.33 x10E3/uL

Source: ChEMBL document CHEMBL3885881, “DrugMatrix”
